Source: patent publication US8980872B2, “Agent for preventing and/or treating functional gastrointestinal disorder” (Aska Pharmaceutical Co., Ltd., priority 2008, dated 2015)

System: Water Avoidance Stress-Induced Hyperdefecation Model
Test: Inhibition test of the number of stools using water avoidance stress-induced hyperdefecation model
Assay type: in vivo, rat
Description: Each of rats was freely allowed to have an enteral nutritional supplement, ELENTAL (0.25 g/mL; manufactured by Ajinomoto Co., Inc.) contained in a water-feeding bottle for seven days before a treatment with TNBS (2,4,6-trinitrobenzene sulfonic acid). The rats were fasted from the day before the TNBS administration day, and drinking water instead of ELENTAL was contained in the water-feeding bottle. On the day of the TNBS treatment (the rat: 8-week-old), 10 mL of physiological saline was intrarectally injected to the rat under anesthetization with ethyl ether to wash the enteral content. After the washing, the rat was allowed to stand longer than 2 hours, and 1 mL of 5 or 30 mg/head of TNBS in 40% ethanol/physiological saline (vehicle) was applied (injected) through the rectal injection under anesthetization with pentobarbital. Further, a silicone plug was inserted to the anus of the rat to stay the TNBS solution in the injection site, and the surrounding of the anus was fixed with an adhesive cloth elastic bandage (Elastopore). After about four hours of the TNBS treatment, the Elastopore and the silicone plug were removed from the rat, and 10 mL of physiological saline was intrarectally injected to the rat to discharge the enteral content. The animal was conventionally bled for four weeks from the TNBS treatment to recover from colitis. Moreover, to each of positive control rats, alosetron was orally administered singly before one hour of the stress loading.
Moreover, to each of positive control rats, alosetron (10 mg/kg) was orally administered singly before one hour of the water-stress loading. On the day of the measurement of the number of stools (the rat: 12-week-old), the animal was allowed to stand on a block (10 cm×5 cm×10 cm) installed in a water bath (about 50×30×40 cm, water depth: 5 cm) for one hour. However, each of animals on which no water environment stress was loaded (normal group) was allowed to stand in a waterless bath. The total number of stools excreted for the one hour after the animal was allowed to stand in the water bath was measured as the number of stools. Moreover, the nature of stools were compared and examined.

Structure (SMILES)	number of stools excreted for one hour compared with the control group (alosetron 10 mg/kg orally, single dose one hour before water-stress loading, p<0.001, t-test)	number of stools excreted for one hour compared with the control (rifaximin 100 mg/kg orally for 9 days, rats recovered from TNBS colitis, p<0.001, Dunnett test)	dose dependence of the defecation inhibition effect (rifaximin 6.25, 25 and 100 mg/kg orally for 9 days)	nature of stool (rifaximin-administered group, orally for 9 days)	motility of the intestinal tract (rifaximin-administered group, concluded from number and nature of stools)
Cc1[nH]cnc1CN1CCc2c(c3ccccc3n2C)C1=O [alosetron]	showed a significantly effect compared with the control group	–	–	–	–
CO[C@H]1/C=C/O[C@@]2(C)Oc3c(C)c(O)c4c(O)c(c5c(nc6cc(C)ccn65)c4c3C2=O)NC(=O)/C(C)=C\C=C\[C@H](C)[C@H](O)[C@@H](C)[C@@H](O)[C@@H](C)[C@H](OC(C)=O)[C@@H]1C [rifaximin]	–	decreased the number of stools compared with the control	depended on the dose	normalization in the nature of stool was observed	the motility of the intestinal tract was improved
